Results: patent US6831199B1, “Pyrimidine compounds and derivatives thereof” (G. D. Searle & Co., priority 1995, dated 2004)
Where a name gives a salt, the structure may show the parent alone. Read-outs that look alike come from different tables or passages of the source.

Assays:
[1] = biological target: T1, Human vitronectin receptor (αvβ3) (Homo sapiens, UniProt P05106+P06756); assay: Vitronectin adhesion assay (solid phase receptor assay, competition with biotinylated vitronectin); format: binding; conditions: read-out: AvB3 IC50
T1 construct: Human vitronectin receptor (αvβ3) was purified from human placenta; from tissue; host or cells: human placenta
How it was run: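 Purified human αvβ3 coated overnight at 4 °C in TBS with 1.0 mM Ca++, Mg++, Mn++, pH 7.4; compounds (top final 1.0×10^−4 M) competed with 1 nM biotinylated vitronectin for 2 h at room temperature. Bound ligand detected by HRP anti-biotin/OPD at A450; values normalized to no-competitor controls, four-parameter curve fit.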

[2] = biological target: T2, Human fibrinogen receptor (αIIbβ3) (Homo sapiens, UniProt P05106+P08514); assay: Purified IIb/IIIa receptor assay (solid phase receptor assay, competition with biotinylated vitronectin); format: binding; conditions: read-out: IIb/IIIa IC50
T2 construct: Human fibrinogen receptor (αIIbβ3) was purified from outdated platelets; from tissue; host or cells: outdated human platelets
How it was run: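 Purified platelet αIIbβ3 coated overnight at 4 °C in TBS with 1.0 mM Ca/Mg/Mn, pH 7.4, then BSA-blocked. Compounds (top 1.0×10^−4 M) competed with 1 nM biotinylated vitronectin for 2 h at room temperature. Bound label detected by HRP anti-biotin, A450; values normalized to no-competitor controls, four-parameter fit.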

platelet rich plasma = assay: Human platelet rich plasma assay (ADP induced platelet aggregation); format: cell-based; conditions: Homo sapiens, Platelet, read-out: Human PRP
Procedure: Human Platelet Rich Plasma Assays
Healthy aspirin free donors were selected from a pool of volunteers. The harvesting of platelet rich plasma and subsequent ADP induced platelet aggregation assays were performed as described in Zucker, M. B., “Platelet Aggregation Measured by the Photometric Method”, Methods in Enzymology 169(1989):117-133. Standard venipuncture techniques using a butterfly allowed the withdrawal of 45 mL of whole blood into a 60 mL syringe containing 5 mL of 3.8% trisodium citrate. Following thorough mixing in the syringe, the anti-coagulated whole blood was transferred to a 50 mL conical polyethylene tube. The blood was centrifuged at room temperature for 12 minutes at 200×g to sediment non-platelet cells. Platelet rich plasma was removed to a polyethylene tube and stored at room temperature until used. Platelet poor plasma was obtained from a second centrifugation of the remaining blood at 2000×g for 15 minutes. Platelet counts are typically 300,000 to 500,000 per microliter. Platelet rich plasma (0.45 mL) was aliquoted into siliconized cuvettes and stirred (1100 rpm) at 37° C. for 1 minute prior to adding 50 uL of pre-diluted test compound. After 1 minute of mixing, aggregation was initiated by the addition of 50 uL of 200 uM ADP. Aggregation was recorded for 3 minutes in a Payton dual channel aggregometer (Payton Scientific, Buffalo, N.Y.). The percent inhibition of maximal response (saline control) for a series of test compound dilutions was used to determine a dose response curve.

[3] = ADP induced platelet aggregation in human platelet rich plasma

IC50 [1] [nM] | IC50 [2] [nM] | IC50 (platelet rich plasma; [3]) [nM] | Compound | IC50 (platelet rich plasma) [nM]
60.1 | 20100 | > 200000 | NC(=S)Nc1cccc(C(=O)NCC(=O)NC(CC(=O)O)c2ccccc2)c1 (stereo not drawn) [Example 117, β-[[2-[[[3-[(aminothioxomethyl)amino]phenyl]carbonyl]amino]acetyl]amino]benzenepropanoic acid] | –
22 | 317 | > 20000 | O=C(O)CC(NC(=O)CNC(=O)c1cccc(NC(=O)Nc2ccccc2)c1)c1ccc2c(c1)OCO2 (stereo not drawn) [Example 124, β-[[2-[[[3-3-[[(phenylamino]carbonyl]amino]phenyl]carbonyl]amino]acetyl]amino]-1,3-benzodioxole-5-propanoic acid] | –
2.48 | 2010 | > 200000 | NS(=O)(=O)c1ccc(CNC(=O)Nc2cccc(C(=O)NCC(=O)NC(CC(=O)O)c3cccnc3)c2)cc1 (stereo not drawn) [Example 126, β-[[2-[[[3-[[[[(4-(aminosulfonyl)phenylmethyl]amino]carbonyl]amino]phenyl]carbonyl]amino]acetyl]amino]pyridine-3-propanoic acid, trifluoroacetate salt] | –
0.51 | 461 | > 200000 | O=C(O)CC(NC(=O)CNC(=O)c1cccc(NC(=O)NCc2cccnc2)c1)c1cccnc1 (stereo not drawn) [Example 127, β-[[2-[[[3-[[[3-pyridinylmethyl)amino]carbonyl]amino]phenyl]carbonyl]amino]acetyl]amino]pyridine-3-propanoic acid, bis trifluoroacetate salt] | –
68.9 | 9460 | > 200000 | O=C(O)CCNC(=O)Nc1cccc(C(=O)NCC(=O)NC(CC(=O)O)c2cccnc2)c1 (stereo not drawn) [Example 129, β-[[2-[[[3-[[[(2-carboxyethyl)amino]carbonyl]aminophenyl]carbonyl]amino]acetyl]amino]pyridine-3-propanoic acid, trifluoroacetate salt] | –
47 | 2690 | > 200000 | O=C(O)CC(NC(=O)CNC(=O)c1cccc(NC(=O)NCCc2ccccc2)c1)c1cccnc1 (stereo not drawn) [Example 130, β-[[2-[[[3-[[[(2-phenylethyl)amino]carbonyl]amino]phenyl]carbonyl]amino]acetyl]amino]pyridine-3-propanoic acid, trifluoroacetate salt] | –
3.82 | 1760 | > 20000 | O=C(O)CC(NC(=O)CNC(=O)c1cccc(NC(=O)NCc2cccc3ccccc23)c1)c1cccnc1 (stereo not drawn) [Example 131, β-[[2-[[[3-[[[(1-naphthalenylmethyl)amino]carbonyl]amino]phenyl]carbonyl]amino]acetyl]amino]pyridine-3-propanoic acid, trifluoroacetate salt] | –
54.4 | 14200 | > 20000 | N#C/N=C(\NCc1ccccc1)Nc1cccc(C(=O)NCC(=O)NC(CC(=O)O)c2ccccc2)c1 (stereo not drawn) [Example 136, β-[[2-[[[3-[[(cyanoimino)[(phenylmethyl)amino]methyl]amino]phenyl]carbonyl]amino]acetyl]amino]benzenepropanoic acid] | –
16.2 | 6500 | > 200000 | CN/C(=N\C#N)Nc1cccc(C(=O)NCC(=O)NC(CC(=O)O)c2ccccc2)c1 (stereo not drawn) [Example 137, β-[[2-[[[3-[[(cyanoimino)(methylamino)methyl]amino]phenyl]carbonyl]amino]acetyl]amino]benzenepropanoic acid] | –
36.9 | 5820 | > 200000 | N#C/N=C(\N)Nc1cccc(C(=O)NCC(=O)NC(CC(=O)O)c2ccccc2)c1 (stereo not drawn) [Example 138, β-[[2-[[[3-[[amino(cyanoimino)methyl]amino]phenyl]carbonyl]amino]acetyl]amino]benzenepropanoic acid] | –
23.8 | 16100 | > 200000 | CCN/C(=N\C#N)Nc1cccc(C(=O)NCC(=O)NC(CC(=O)O)c2ccccc2)c1 (stereo not drawn) [Example 139, β-[[2-[[[3-[[(cyanoimino)(ethylamino)methyl]amino]phenyl]carbonyl]amino]acetyl]amino]benzenepropanoic acid] | –
3.09 | 125 | > 200000 | C#C[C@H](CC(=O)O)NC(=O)CNC(=O)c1cccc(N/C(=N/C#N)NC)c1 [Example 141, 3S-[[2-[[[3-[[(cyanoimino)(methylamino)methyl]amino]phenyl]carbonyl]amino]acetyl]amino]-4-pentynoic acid] | –
55.3 | 5830 | > 200000 | N#C/N=C(/NCc1ccccn1)Nc1cccc(C(=O)NCC(=O)NC(CC(=O)O)c2ccccc2)c1 (stereo not drawn) [Example 144, β-[[2-[[[3-[[(cyanoimino)[2-pyridinylmethyl)amino]methyl]amino]phenyl]carbonyl]amino]acetyl]amino]benzenepropanoic acid, bis(trifluoroacetate)salt] | –
14.3 | 879 | > 200000 | N#C/N=C(/NCc1cccnc1)Nc1cccc(C(=O)NCC(=O)NC(CC(=O)O)c2ccccc2)c1 (stereo not drawn) [Example 146, β-[[2-[[[3-[[(cyanoimino)[3-pyridinylmethyl)amino]methyl]amino]phenyl]carbonyl]amino]acetyl]amino]benzenepropanoic acid, bis(trifluoroacetate)salt] | –
5.74 | 631 | > 200000 | N=C(N)Nc1cc(C(=O)NCC(=O)NC(CC(=O)O)c2ccccc2)ccc1Cl (stereo not drawn) [Example 150, β-[[2-[[[3-[(aminoiminomethyl)amino]-4-chlorophenyl)carbonyl]amino]acetyl]amino]benzenepropanoic acid] | –
5.05 | 81.1 | > 200000 | N=C(N)Nc1ccc(Cl)c(C(=O)NCC(=O)NC(CC(=O)O)c2ccccc2)c1 (stereo not drawn) [Example 155, β-[[2-[[[5-[(aminoiminomethyl)amino]-2-chlorophenyl]carbonyl]amino]acetyl]amino]benzenepropanoic acid, trifluoroacete salt] | –
4.62 | 1340 | > 200000 | NC(=O)/N=C(/N)Nc1cccc(C(=O)NCC(=O)NC(CC(=O)O)c2cc(Cl)cc(Cl)c2)c1 (stereo not drawn) [Example 162, β-[[(2-[[[3-[[amino(aminocarbonyl)imino]methyl]amino]phenyl]carbonyl]amino]acetyl]amino]-3,5-dichlorobenzenepropanoic acid, trifluoroacetate salt] | –

Compound | IC50 [1] [nM] | IC50 [2] [nM] | IC50 (platelet rich plasma; [3]) [nM] | IC50 (platelet rich plasma) [nM]
O=C(O)CC(NC(=O)CNC(=O)c1cccc(NC(=O)NCc2ccccc2)c1)c1ccc2c(c1)OCO2 (stereo not drawn) [Example 122, β-[[2-[[[3-[[[(phenylmethyl)amino]carbonyl]amino]phenyl]carbonyl]amino]acetyl]amino]-1,3-benzodioxole-5-propanoic acid] | 0.79 | 420 | – | > 20000
